Data taken from patent US20240366609A1 (Genentech, Inc., priority 2021, published 2024).

How the values were obtained:
melanoma = settings: patients who have previously undergone anti-PD-1 treatment; cited from earlier work
[1] = tested on: Calu-6 NSCLC cell line harboring KRAS^Q61K mutation; experiment: Calu-6 xenograft, belvarafenib and selumetinib (Example 10); type: in vivo, mice; settings: 17 days
advanced melanoma = settings: cited from earlier work
[2] = tested on: SK-MEL-30 melanoma cell line harboring NRAS^Q61K mutation; experiment: SK-MEL-30 xenograft, belvarafenib and binimetinib (Example 9); type: in vivo, mice; settings: 21 days
[3] = plasma protein binding of cobimetinib; type: in vitro ADME; settings: concentration-independent
[4] = tested on: SK-MEL-30 human melanoma cell line harboring NRAS^Q61K mutation; settings: mouse, in vivo, po
Method: (§1) Tumor volume in mm^3 and body weight change were measured at days 1, 4, 9 and 15.
(§2) Maximum inhibition rate (max inhib (%)) was determined by (1−(mean relative tumor weight in treated group/mean relative tumor weight control group))*100.

[5] = tested on: SK-MEL-30 human melanoma cell line harboring NRAS^Q61K mutation; experiment: SK-MEL-30 xenograft, belvarafenib and cobimetinib (Example 7); settings: 10 mg/kg QD orally, 14 days
Method: as §1, §2

[6] = Phase 1a/b study NCT03284502: pharmacokinetic analysis; type: in vivo, human; settings: steady-state, dose normalized
[7] = clinical pharmacokinetics of cobimetinib; settings: for half-life: oral administration
[8] = atezolizumab Study PCD4989g; type: in vivo, human; settings: single agent
Method: The pharmacokinetics of atezolizumab administered as a single agent have been characterized based on clinical data from study PCD4989g and are consistent with a currently ongoing Phase III Study WO29522 in first line treatment of TNBC. Atezolizumab anti-tumor activity has been observed across doses from 1 to 20 mg/kg. […] Atezolizumab dosing schedules of q3w and q2w have been tested. A fixed dose of atezolizumab 800 mg every two weeks (q2w) (equivalent to a body weight-based dose of 10 mg/kg q2w) results in equivalent exposure to the Phase III dose of 1200 mg administered every three weeks (q3w). The q3w schedule is being used in multiple Phase III studies of atezolizumab monotherapy across multiple tumor types and the q2w predominantly used in combination with chemotherapy regimens.

Which response rate (melanoma) does the source give for “ipilimumab: anti-CTLA4 immunotherapy agent” here?
Its response rate is “approximately 15%”.

Which “Day for max inhib” value ([1]; 5 mg/kg BID orally) does the source give for Cn1cnc2c(F)c(Nc3ccc(Br)cc3Cl)c(C(=O)NOCCO)cc21 [Selumetinib, reference compound] here?
The value was “Day 18”.

And the “Max inhib. Rate (%)” value ([1]; 5 mg/kg BID orally)?
Its value is 59.0%.

What about the “Max weight loss (%)” value ([1]; 5 mg/kg BID orally) of the same compound?
Its value is 1.5%.

What about the tolerability ([1]; single agent) of the same compound?
Its tolerability is “well tolerated with or without minimal body weight loss”.

Which “median OS” value (advanced melanoma; 5 years minimum follow-up) does the source give for “nivolumab: anti-PD-1 immunotherapy agent, monotherapy arm of a Phase III trial” here?
Its value is 36.9 months.

And the PFS (advanced melanoma; Phase III trial of 1296 patients)?
Its PFS is 6.9 months.

Which “Day for max inhib” value ([2]; 10 mg/kg QD orally) does the source give for Cn1cnc2c(F)c(Nc3ccc(Br)cc3F)c(C(=O)NOCCO)cc21 [Binimetinib] here?
The value was “Day 21”.

And the “Max inhib. Rate (%)” value ([2]; 10 mg/kg QD orally)?
Its value is 13.6%.

And the “Max weight loss (%)” value ([2]; 10 mg/kg QD orally)?
Its value is 0.8%.

And the “Day for max inhib” value ([2]; 30 mg/kg QD orally)?
The value was “Day 21”.

What about the “Max inhib. Rate (%)” value ([2]; 30 mg/kg QD orally) of the same compound?
Its value is 27.1%.

And the tolerability ([2]; single agent, 10 and 30 mg/kg q.d.)?
The tolerability was “well tolerated without marked body weight loss”.

Which results are given for O=C(c1ccc(F)c(F)c1Nc1ccc(I)cc1F)N1CC(O)([C@@H]2CCCCN2)C1 [Cobimetinib, (S)-[3,4-Difluoro-2-(2-fluoro-4-iodophenylamino)phenyl][3-hydroxy-3-(piperidin-2-yl)azetidin-1-yl]methanone]?
binding to plasma proteins [3]: 95%; tolerability [4]: well tolerated without body weight loss; Day for max inhib [5]: Day 15; Max inhib. Rate (%) [5]: 54.3%; drug-drug interaction with belvarafenib impacting cobimetinib exposure [6]: no apparent drug-drug interaction; pharmacokinetics in the fed state compared with the fasted state ([7]; healthy subjects): not altered; bioavailability ([7]; human, in vivo, oral): 45.9%; Tmax ([7]; human, in vivo, po): 1 to 3 h; half-life ([7]; human, in vivo, po, mean terminal half-life (t½)): 48.8 h; half-life ([7]; human, in vivo, po, terminal half-life (t½), range): 23.1 to 80 h; effect of the proton pump inhibitor rabeprazole on cobimetinib pharmacokinetics ([7]; presence or absence of a high-fat meal): minimal effect

For “Atezolizumab: humanized IgG1 monoclonal antibody that targets PD-L1”, which “Kaplan-Meier estimated overall 24-week progression-free survival (PFS) rate” value [8] is on record?
Its value is 33%.
